How the values were obtained:
[1] = in vivo; details: Sprague-Dawley, rat
[2] = in vivo; details: Sprague-Dawley, rat; remark: listed apart in the source
[3] = in vivo; details: Sprague-Dawley, rat; remark: listed apart in the source
[4] = in vivo; details: Sprague-Dawley, rat; remark: listed apart in the source
[5] = in vivo; details: Sprague-Dawley, rat, po
[6] = Toxicity in iv dosed C57BL/6 mouse assessed as no observable effect level; format: organism-based; details: in vivo
[7] = AUC in Sprague-Dawley rat; format: ADME, organism-based; design: concentration or dose not given beside the values; details: plasma
[8] = tested on: Mus musculus; assay: Toxicity in C57BL/6 mouse assessed as increase in liver ALT level at 50 mg/kg, iv; format: organism-based; design: dose 50 mg/kg, route intravenous; details: in vivo
[9] = Cmax in mouse at 5 mg/kg, po; format: ADME, organism-based; design: dose 5 mg/kg, route oral; details: in vivo
[10] = Clearance in mouse at 5 mg/kg, po; format: ADME, organism-based; design: dose 5 mg/kg, route oral; details: in vivo
[11] = tested on: Mus musculus; assay: Volume of distribution at steady state in mouse at 5 mg/kg, po; format: ADME, organism-based; design: dose 5 mg/kg, route oral; details: in vivo
[12] = (§1) Half life in mouse at 5 mg/kg, po; format: ADME, organism-based; design: dose 5 mg/kg, route oral; details: in vivo
[13] = Oral bioavailability in mouse at 5 mg/kg; format: ADME, organism-based; details: in vivo
[14] = AUC in mouse at 5 mg/kg, po; format: ADME, organism-based; design: dose 5 mg/kg, route oral; details: plasma
[15] = Cmax in dog; format: ADME, organism-based, Canis lupus familiaris; details: in vivo
[16] = Clearance in dog; format: ADME, organism-based, Canis lupus familiaris; details: in vivo
[17] = Volume of distribution at steady state in dog; format: ADME, organism-based, Canis lupus familiaris; details: in vivo, read-out: Vdss
[18] = Half life in dog; format: ADME, organism-based, Canis lupus familiaris; details: in vivo
[19] = AUC in dog; format: ADME, organism-based, Canis lupus familiaris; details: plasma
[20] = Oral bioavailability in dog; format: ADME, organism-based, Canis lupus familiaris; details: in vivo
[21] = tested on: Mus musculus; assay: as §1; format: ADME, organism-based; design: dose 5 mg/kg, route oral; details: in vivo
[22] = tested on: Mus musculus; assay: Toxicity in C57BL/6 mouse assessed as increase in liver ALT level at 15 mg/kg, iv; format: organism-based; design: dose 15 mg/kg, route intravenous; details: in vivo
[23] = Metabolic stability in rat liver microsomes assessed as compound remaining after 30 mins; format: ADME, Microsome; details: read-out: Stability

| SMILES | clearance [1] | Cmax [2] | Vd [3] | half-life [4] | bioavailability [5] | also measured |
| --- | --- | --- | --- | --- | --- | --- |
| Cc1cc(C(=O)O)ccc1-c1ccc(N2C(=O)N(c3ccncn3)C3(CCN(Cc4ncccc4C)CC3)C2=O)cc1 | 34 mL/min/kg | 390 nM | 1.9 L/kg | 1.1 h | 47% |  |
| COc1cc(N2C(=O)N(c3ccc(-c4ccc(C(=O)O)cc4C)cc3)C(=O)C23CCN(Cc2ncccc2C)CC3)ncn1 | 11.9 mL/min/kg | 570 nM | 4.3 L/kg | 4.1 h | 64% | NOAEL [6]: 50 mg/kg |
| Cc1cccnc1CN1CCC2(CC1)C(=O)N(c1ccc(-c3ccccc3)cc1)c1ncccc12 | 59 mL/min/kg | 40 nM | 8 L/kg | 1.9 h | 0% | AUC [7]: 0.6 µM·h |
| COc1cc(N2C(=O)N(c3ccc(-c4ccc(C(N)=O)cc4)cc3)C(=O)C23CCN(Cc2ncccc2C)CC3)ncn1 |  |  |  |  |  | fold change (FC) [8]: 6.6 |
| Cc1cccnc1CN1CCC2(CC1)C(=O)N(c1ccc(-c3ccc(C(=O)O)cc3)cc1)C(=O)N2c1ncccn1 | 51 mL/min/kg | 100 nM | 2.2 L/kg | 1.1 h | 18% |  |
| COc1cc(N2C(=O)N(c3ccc(-c4ccc(C(=O)O)cc4)cc3)C(=O)C23CCN(Cc2ncccc2C)CC3)ncn1 | 8.8 mL/min/kg | 1900 nM | 1.7 L/kg | 2.6 h | 92% | Cmax [9]: 6100 nM; CL/F [10]: 1.2 mL/min/kg; Vdss [11]: 0.4 L/kg; half-life [12]: 3.7 h; bioavailability [13]: 36% |
| Cc1cccnc1CN1CCC2(CC1)C(=O)N(c1ccc(-c3ccccc3)cc1)C(=O)N2c1nccc(O)n1 | 9 mL/min/kg | 990 nM | 0.72 L/kg | 1.1 h | 66% | AUC [7]: 3.7 µM·h; Cmax [9]: 990 nM; CL/F [10]: 13 mL/min/kg; Vdss [11]: 1.3 L/kg; half-life [12]: 1.4 h; bioavailability [13]: 78%; AUC [14]: 1.4 µM·h; Cmax [15]: 1500 nM; clearance [16]: 1.3 mL/min/kg; Vd [17]: 1.1 L/kg; half-life [18]: 13 h; AUC [19]: 41 µM·h; bioavailability [20]: 26% |
| Cc1cccnc1CN1CCC2(C(=O)N(c3ccc(-c4ccccc4)cc3)C(=O)N2c2cc(O)ncn2)C(C(=O)O)C1 (stereo unspecified) | 1.2 mL/min/kg | 63 nM | 0.34 L/kg | 3.6 h | 4.3% | Cmax [9]: 300 nM; Vdss [11]: 0.4 L/kg; t1/2 [21]: 2.1 h; bioavailability [13]: 7.1% |
| COc1cc(N2C(=O)N(c3ccc(-c4cccc(C(=O)O)c4)cc3)C(=O)C23CCN(Cc2ncccc2C)CC3)ncn1 |  |  |  |  |  | fold change (FC) [22]: 6.1 |
| Cc1cccnc1CN1CCC2(NC(=O)N(c3ccc(-c4ccccc4)cc3)C2=O)C(C(=O)O)C1 (stereo unspecified) | 11 mL/min/kg | 40 nM | 0.58 L/kg | 1.1 h | 14% | AUC [7]: 3.2 µM·h |
| Cc1cccnc1CN1CCC2(CC1)C(=O)N(c1ccc(-c3ccccc3)cc1)C(=O)N2c1ccc(O)nn1 | 40 mL/min/kg | 300 nM | 1.1 L/kg | 1.2 h | 58% |  |
| Cc1cccnc1CN1CCC2(CC1)NC(=O)N(c1ccc(-c3ccccc3)cc1)C2=O | 275 mL/min/kg | 17 nM | 2.6 L/kg | 0.12 h | 42% | AUC [7]: 0.14 µM·h |
| Cc1cc(C(=O)O)ccc1-c1ccc(N2C(=O)N(c3cnccn3)C3(CCN(Cc4ncccc4C)CC3)C2=O)cc1 | 22 mL/min/kg | 390 nM | 1.6 L/kg | 1.5 h | 29% |  |
| Cc1cccnc1CN1CCC2(CC1)C(=O)N(c1ccc(-c3ccccc3)cc1)C(=O)N2c1ccnc(O)n1 | 14 mL/min/kg | 1300 nM | 0.9 L/kg | 1.2 h | 39% |  |
| Cc1cccnc1CN1CCC2(CC1)C(=O)N(c1cnc3ccccc3c1)c1ccccc12 |  |  |  |  |  | remaining at 0.5 h [23]: 35% |
| Cc1cccnc1CN1CCC2(CC1)C(=O)N(c1ccc(-c3ccccc3)cc1)C(=O)N2c1ncccn1 | 51 mL/min/kg | 101 nM | 2.1 L/kg | 1.1 h | 18% |  |
| Cc1cccnc1CN1CCC2(CC1)C(=O)N(c1ccc(-c3ccc(C(=O)O)cc3)cc1)C(=O)N2c1ccncn1 | 16 mL/min/kg | 580 nM | 2 L/kg | 2.2 h | 8% |  |
| Cc1cccnc1CN1CCC2(CC1)C(=O)N(c1ccc(-c3ccccc3)cc1)c1ccccc12 | 30 mL/min/kg | 79 nM | 8.2 L/kg | 3 h | 11% | AUC [7]: 1.2 µM·h |
| Cn1ccnc1CN1CCC2(CC1)C(=O)N(c1cnc3ccccc3c1)c1ccccc12 |  |  |  |  |  | remaining at 0.5 h [23]: < 10% |
| Cc1cccnc1CN1CCC2(CC1)C(=O)N(c1ccc(-c3ccccc3)cc1)C(=O)N2c1cc(O)ccn1 | 35 mL/min/kg | 340 nM | 1.4 L/kg | 0.5 h | 49% |  |

— ChEMBL document CHEMBL2040836, “1,3,8-Triazaspiro[4.5]decane-2,4-diones as efficacious pan-inhibitors of hypoxia-inducible factor prolyl hydroxylase 1-3 (HIF PHD1-3) for the treatment of anemia” (J Med Chem, 2012)
